What was measured:
[1] = system: PC-3 cells; test: PC-3 cell proliferation after ASO/siRNA transfection; format: cell-based, human; details: for inhibition of PC-3 cell proliferation, screening of ten MCT4 ASOs: 100 nM, 48 hours; for inhibition of cell proliferation, time course: 96 hours post-transfection; for IC50: transfection of 5 nM to 200 nM, read-out: IC50 inhibition of PC-3 cell proliferation
Procedure: (§1) Cell viability was assessed by trypan blue exclusion.
(§2) Cells were transfected in 6-well plates with ASOs at 100 nM for 48 hours (unless otherwise indicated) using Oligofectamine™ (Invitrogen™, Carlsbad, Calif.) or with MCT4-targeting siRNAs and controls (Dharmacon™, Chicago, Ill.) at 50 nM for 48 hours using Lipofectamine™ 2000 (Invitrogen™), following the manufacturer's instructions.

[2] = system: MCT4 mRNA; test: MCT4 expression (mRNA, protein) in PC-3 cells after ASO transfection; format: cell-based, human; details: for MCT4 protein levels, time course: 96 hours; for inhibition of MCT4 expression, screening of ten MCT4 ASOs: qPCR and Western blot, 48 hours; for IC50: transfection of 5 nM to 200 nM, read-out: IC50 reduction of MCT4 mRNA levels
Procedure: as §2
(§3) Total RNA was isolated using the RNeasy Mini Kit™ (Qiagen Inc.™, Hilden, Germany) and cDNA synthesized using the QuantiTect Reverse Transcription Kit™ (Qiagen™). Primers were designed using Primer-BLAST™. qRT-PCR reactions using KAPA SYBR Fast Universal™ (Kapa Biosystems™, Woburn, Mass.) were performed in triplicate in a ViiA 7 Real-Time PCR™ system (Applied Biosystems™, Foster City, Calif.). Target genes were normalized to a geometric average of 3 internal reference genes (Vandesompele et al., 2002).
Cells were harvested and lysed in RIPA buffer (50 mM Tris-Cl pH 7.4, 150 mM NaCl, 1% Igepal, 0.5% Na-deoxycholate, 0.1% SDS) supplemented with a complete protease inhibitor cocktail (Roche, Nutley, N.J.). The protein concentration of the lysate was determined by Pierce BCA Protein Assay™ (Thermo Scientific™, Waltham, Mass.). The lysate was run on 8% SDS polyacrylamide gel (20 ug of protein per lane) and proteins were transferred onto PVDF membrane (Millipore™, Billerica, Mass.). The blot was blocked with the Odyssey™ blocking buffer (Li-cor Biosciences™) and probed with anti-MCT4 antibody. Vinculin was used as a loading control. Following overnight incubation at 4° C., the primary antibody was probed with the corresponding secondary antibody and detected using the Odyssey Infrared Imaging System™ (Li-cor Biosciences™) and Image Studio Version 3.1™ (Li-cor Biosciences™). Densitometry analysis was done using ImageJ (U.S. National Institutes of Health, Bethesda, Md.).

[3] = system: C4-2 CRPC cells; test: C4-2 CRPC cell proliferation after ASO transfection; format: cell-based, human; details: read-out: IC50 inhibition of C4-2 cell proliferation
Procedure: as §1, §2

[4] = system: MCT4; test: MCT4 expression in C4-2 cells after ASO transfection; format: cell-based, human; details: read-out: IC50 reduction of MCT4 expression
Procedure: as §2
as §3, with “Target genes were normalized to a geometric average of 3 internal reference genes (Vandesompele et al., 2002).” left out
(§4) Cells were harvested and lysed in RIPA buffer (50 mM Tris-Cl pH 7.4, 150 mM NaCl, 1% Igepal, 0.5% Na-deoxycholate, 0.1% SDS) supplemented with a complete protease inhibitor cocktail (Roche, Nutley, N.J.). The protein concentration of the lysate was determined by Pierce BCA Protein Assay™ (Thermo Scientific™, Waltham, Mass.). […] Following overnight incubation at 4° C., the primary antibody was probed with the corresponding secondary antibody and detected using the Odyssey Infrared Imaging System™ (Li-cor Biosciences™) and Image Studio Version 3.1™ (Li-cor Biosciences™). […]

[5] = system: DU145 prostate cancer cells; test: DU145 cell proliferation after ASO transfection; format: cell-based, human; details: compared with PC-3 and C4-2
Procedure: as §1, §2

[6] = system: MCT4; test: MCT4 expression in DU145 cells after ASO transfection; format: cell-based, human; details: compared with PC-3 and C4-2
Procedure: as §2
as §3, with “Target genes were normalized to a geometric average of 3 internal reference genes (Vandesompele et al., 2002).” left out
as §4

[7] = system: TRAMPC2 prostate cancer cells; test: TRAMPC2 cell proliferation after ASO transfection; format: cell-based, mouse; details: up to highest tested concentration of 200 nM
Procedure: as §1, §2

[8] = system: mouse MCT4; test: Mouse MCT4 expression in TRAMPC2 cells after ASO transfection; format: cell-based; details: up to 200 nM
Procedure: as §2
as §3, with “Target genes were normalized to a geometric average of 3 internal reference genes (Vandesompele et al., 2002).” left out
as §4

[9] = system: PC-3 cells; test: Lactate and glucose determination in PC-3 cells; format: cell-based, human; details: after 48 hours of transfection
Procedure: PC-3 cells transfected with ASOs for 48 hours were assessed for lactate and glucose levels. Cells were incubated with fresh media for 4 hours. A sample of the media was then taken and deproteinated with 10K Spin Columns™ (BioVision™, Milpitas, Calif.) prior to determination of lactate concentration using Lactate Assay Kit (BioVision) and glucose concentration using Glucose Assay Kit™ (BioVision™). Intracellular lactate levels were determined by lysing ASO-transfected cells in MQH2O. Final concentrations were determined by normalizing to the total number of live cells.

[10] = system: PC-3 cells; test: qPCR of glycolysis and lactic acid conversion genes in PC-3 cells; format: cell-based, human
Procedure: as §3

[11] = system: subcutaneous PC-3 tumours; test: Treatment of PC-3 tumour-bearing nude mice with MCT4 ASO; format: in vivo; details: for host toxicity (animal weights and behaviour) / growth of PC-3 tumours: 10 mg/kg intraperitoneal; for host toxicity (animal weights and behaviour): 15 days; for growth of PC-3 tumours: daily for 5 days, 2 days off, total 15 days; for MCT4 protein expression in tumour / cell apoptosis, cleaved-caspase 3 staining / cell proliferation, Ki-67 staining: tumour tissue IHC
Procedure: PC-3 cells ([…] cells in 1:1 HBSS:Matrigel) were injected subcutaneously into both flanks of 24 male athymic nude mice (Simonsen Laboratories™, Gilroy, Calif.). Once the mean tumour volume had reached approximately 100 mm3, mice were randomized into four groups and treated with intraperitoneal injections of MCT4 ASO #1 (SEQ ID NO: 1), #14 (SEQ ID NO: 5), control ASO, or vehicle (PBS) at 10 mg/kg daily for 5 days followed by 2 days off treatment for a total of 15 days. The health of the mice was monitored throughout the study by measuring body weights and checking for abnormal behaviour such as lethargy, lack of hydration, and additional signs of weakness. Tumour size was measured twice weekly and tumour volume calculated using the formula: Volume=Length×width×depth×0.5236 (mm3). Mice were sacrificed 1 hour after the final dose for tissue harvesting.
Tumour tissue was formalin-fixed and paraffin-embedded for immunohistochemical analysis. Tissues were sectioned, probed, and stained with DAB (Sigma™) as previously described (Wang et al., 2005). […] For MCT4, images of five random fields at 200× magnification were taken per tumour and staining intensity was assessed by percentage scoring, using the formula: Intensity=(% area score 3)×3+(% area score 2)×2+(% area score 1)×1. The extent of immune cell aggregation was quantified following CD31 staining by imaging the five most prominent regions of aggregates per tumour at 200× magnification and determining the percent area of the field they occupied. The proportions of immune cells were evaluated as the area of positive staining normalized to the area occupied by immune cell aggregates in the same five prominent regions.

[12] = system: PC3 cells; test: Combination screening, total live PC3 cell numbers; format: cell-based, human; details: approximate IC50 used for combination screening, 48 hours; read-out: IC50 Concentration
Excerpt: Human PC-3 and DU145 CRPC cells, human LNCaP prostate cancer cells, and mouse TRAMPC2 prostate cancer cells were purchased from the American Type Culture Collection (ATCC); C4-2 CRPC cells were from the Vancouver Prostate Centre, Vancouver, BC, Canada. Human monolayer cultures were maintained in RPMI-1640 (GE Healthcare Hyclone™, Logan, Utah) supplemented with 10% fetal bovine serum (FBS) (GE Healthcare Hyclone™, Logan, Utah) while TRAMPC2 cells were maintained in DMEM (GE Healthcare Hyclone™, Logan, Utah) supplemented with 5% FBS. For cell counting, cells were trypsinized to form a single cell suspension and counted using a TC20 Automated Cell Counter (Bio-Rad, Hercules, Calif.). Cell viability was assessed by trypan blue exclusion.
Various combination strategies were screened at the approximate IC50 concentrations to determine whether synergistic effects may be found by combining current cancer therapeutics (see TABLE D) with MCT4 ASO SEQ ID NO:5. In FIGS. 10 A-C, the total live PC3 cell numbers were assessed 48 hours after treatment with Metformin, Doxycycline and docetaxel both alone and in combination with MCT4 ASO SEQ ID NO:5.

Sequence	inhibition of PC-3 cell proliferation, screening of ten MCT4 ASOs [1]	inhibition of cell proliferation, time course [1]	IC50 [1]	MCT4 protein levels, time course [2]	inhibition of MCT4 expression, screening of ten MCT4 ASOs [2]	IC50 [2]	IC50 [3]	IC50 [4]	inhibitory effect on DU145 cell proliferation [5]	inhibitory effect on MCT4 expression in DU145 cells [6]	reduction in TRAMPC2 cell proliferation [7]	reduction in mouse MCT4 expression [8]	glucose consumption [9]	intracellular lactate [9]	lactic acid secretion [9]	expression of glycolysis genes GAPDH, PGK1, PGAM1 and ENO1 [10]	expression of lactate dehydrogenase A (LDHA) [10]	expression of pyruvate dehydrogenase kinase-1 (PDK1) [10]	host toxicity (animal weights and behaviour) [11]	growth of PC-3 tumours [11]	other results
AGATGCAGAAGACCACGAGG (chemistry not given here; listed as Homo sapiens) [SEQ ID No. 5]	greatest potency	maintained the inhibition of cell proliferation	26 nM	remained low	greatest potency	32 nM	27 nM	26 nM	almost identical IC50 values	almost identical IC50 values	did not lead to a significant reduction	did not lead to a significant reduction	extensive decrease	accumulation	marked inhibition	down regulation	depressed	decreased expression	without inducing major host toxicity	markedly inhibited	MCT4 protein expression in tumour [11]: decrease in MCT4 protein expression; cell apoptosis, cleaved-caspase 3 staining [11]: increase in cell apoptosis; cell proliferation, Ki-67 staining [11]: decrease in cell proliferation; IC50 [12]: 50 nM
TCCCATGGCCAGGAGGGTTG (chemistry not given here; listed as Homo sapiens) [SEQ ID No. 1]	greatest potency	maintained the inhibition of cell proliferation	50 nM	remained low	greatest potency	50 nM	40 nM	50 nM	almost identical IC50 values	almost identical IC50 values	did not lead to a significant reduction	did not lead to a significant reduction	extensive decrease	accumulation	marked inhibition	down regulation	depressed	decreased expression	without inducing major host toxicity	markedly inhibited	MCT4 protein expression in tumour [11]: decrease in MCT4 protein expression; cell apoptosis, cleaved-caspase 3 staining [11]: increase in cell apoptosis; cell proliferation, Ki-67 staining [11]: decrease in cell proliferation

— patent publication US11466273B2, “Monocarboxylate transporter 4 (MCT4) antisense oligonucleotide (ASO) inhibitors for use as therapeutics in the treatment of cancer” (THE UNIVERSITY OF BRITISH COLUMBIA, priority 2015, dated 2022)
